In patent US20240352145A1, “EFFICACY OF ANTI-TROP-2-SN-38 ANTIBODY DRUG CONJUGATES FOR THERAPY OF TUMORS RELAPSED/REFRACTORY TO CHECKPOINT INHIBITORS” (Immunomedics, Inc., priority 2016, published 2024):
pIC50: −log10 of the molar value. Like-named read-outs stand apart in the source and are kept apart here.

Key:
[1] = tested on: human gastric carcinoma xenografts (NCI-N87); test: NCI-N87 xenograft, comparison of anti-Trop-2 ADCs; type: in vivo, mouse
Experimental: NCI-N87 cells were expanded in tissue culture and harvested with trypsin/EDTA. Female athymic nude mice were injected s.c. with 200 μL of NCI-N87 cell suspension mixed 1:1 with matrigel such that 1×10^7 cells was administered to each mouse. Once tumors reached approximately 0.25 cm^3 in size (6 days later), the animals were divided up into seven different treatment groups of nine mice each. For the SN-38 ADCs, mice received 500 μg i.v. injections once a week for two weeks. Control mice received the non-tumor targeting hA20-SN-38 ADC at the same dose/schedule. A final group of mice received only saline and served as the untreated control. Tumors were measured and mice weighed twice a week. Mice were euthanized for disease progression if their tumor volumes exceeded 1.0 cm^3 in size.

PARP = test: Immunoblotting, apoptosis signaling, NCI-N87 and BxPC-3; type: cell-based, human; conditions: evident at 24 h, increased at 48 h
Experimental: Immunoblotting—Cells (2×10^6) were plated in 6-well plates overnight. […] Parental hRS7 was used as a control for the ADC. Cells were lysed in buffer containing 10 mM Tris, pH 7.4, 150 mM NaCl, protease inhibitors and phosphatase inhibitors (2 mM […], 10 mM NaF). A total of 20 μg protein was resolved in a 4-20% SDS polyacrylamide gel, transferred onto a nitrocellulose membrane and blocked by 5% non-fat milk in 1×TBS-T (Tris-buffered saline, 0.1% Tween-20) for 1 h at room temperature. Membranes were probed overnight at 4° C. with primary antibodies followed by 1-h incubation with antirabbit secondary antibody (1:2500) at room temperature. Signal detection was done using a chemiluminescence kit (Supersignal West Dura, Thermo Scientific; Rockford, IL) with the membranes visualized on a Kodak Image Station […]. Primary antibodies p21Waf1/Cip1 (Cat. No. 2947), Caspase-3 (Cat. No. 9665), Caspase-7 (Cat. No. 9492), Caspase-9 (Cat. No. 9502), PARP (Cat. No. 9542), 3-actin (Cat. No. 4967), pJNK1/2 (Cat. No. 4668), JNK (Cat. No. 9258), and goat anti-rabbit-HRP secondary antibody (Cat. No. 7074) were obtained from Cell Signal Technology (Danvers, MA).

SK-MES-1 = test: In vitro cytotoxicity, SK-MES-1
Source text: Cell lines, antibodies, and chemotherapeutics—All human cancer cell lines used in this study were purchased from the American Type Culture Collection.

small-cell lung cancer = type: in vivo, human
Source text: This is a person with a diagnosis of small-cell lung cancer, involving their left lung, mediastinal lymph nodes, and MRI evidence of a metastasis to the left parietal brain lobe. Prior chemotherapy includes carboplatin, etoposide, and topotecan, but with no response noted. Radiation therapy also fails to control their disease.

[2] = Cardillo et al., 2011; cited from earlier work
HCC1806 (Trop-2+) = test: dsDNA breaks, phospho-H2AX flow cytometry, HCC1806; type: cell-based, human; conditions: untreated baseline 168
Experimental: In vitro specificity testing by flow cytometry with rH2AX-stained cells—For drug activity testing, HCC1806 and HCC1395 TNBC cell lines cells were seeded in 6-well plates at 5×10^5 cells/well and held at 37° C. overnight. […] The signal intensity of rH2AX was measured by flow cytometry using a BD FACSCalibur (BD Biosciences, San Jose, CA).
The cells were then washed to remove unbound conjugate, and then incubated overnight at 37° C.

MDA-MB-468 = test: Cytotoxicity (MTS), Example 7, MDA-MB-468; type: cell-based, human; conditions: MDA-MB-468, 96 h
Experimental: One day prior to adding the ADC, cells were harvested from tissue culture and plated into 96-well plates at 2000 cells per well. […] Plates were incubated at 37° C. for 96 h. […] Growth inhibition was measured as a percent of growth relative to untreated cells using Microsoft Excel and Prism software (non-linear regression to generate sigmoidal dose response curves which yield IC50-values).

TNBC = type: in vivo, human
Experimental: Medical History—The patient is a person who was first diagnosed in October 2007 with a 1.8 cm mass in their right breast. They underwent a right mastectomy with a sentinel node biopsy (no malignancy in nodes). The tumor was determined to be negative for ER, PR and Her-2 (i.e., TNBC). They proceeded with 4 cycles of AC (doxorubicin and cyclophosphamide) therapy, followed by weekly low dose paclitaxel (×12). […] They had local surgery to remove the node and then received XRT (radiation therapy) through March 2009. In June 2010 CT documented recurrent pulmonary and bone involvement. The patient enrolled in a clinical trial using AVASTIN® (bevacizumab), METMAB® (onartuzumab, […]), and TAXOL® (paclitaxel), which they were maintained on until March 2013, having a complete response, but eventual progression of peripheral lung nodule and node in AP (aortopulmonary) window. In September 2014, they started on PD-L1 antibody (MPDL3280A) for 6 cycles, but progressed in January 2015.
2015 at a dose of 10 mg/kg, and has continued to receive this dose without reduction or delay in planned schedule now for 40+ doses.

## IMMU-132
[1]; 500 μg i.v. once a week for two weeks
  tumor growth (AUC) vs saline and hA20-SN-38: significantly inhibited tumor growth
[1]; mouse, in vivo
  mean time to tumor progression (TTP): 18.4 ± 3.3 days
[1]; nine mice per group
  mice with stable disease: 7 of 9
PARP
  PARP cleavage: mediated PARP cleavage
SK-MES-1
  pIC50: 7.64
small-cell lung cancer; 18 mg/kg once every three weeks, after fifth infusion
  shrinkage of target left lung mass: 13%
small-cell lung cancer; after another 3 months
  reduction of brain metastasis: 21%
  reduction of left lung mass: 25%
small-cell lung cancer; after fifth infusion
  reduction of brain metastasis: 10%
small-cell lung cancer; in vivo
  adverse events after second dose: hypotension and a Grade 2 neutropenia
[2]
  very well tolerated human equivalent dose: ~40 mg/kg
HCC1806 (Trop-2+)
  Median fluorescence intensity, anti-rH2AX-AF488: 546
MDA-MB-468
  pIC50: 8.41
TNBC; 10 mg/kg
  Best Response, shrinkage: 54%
TNBC; 10 mg/kg, patient progressed after PD-L1 therapy
  Best Response: Partial response, confirmed
TNBC; CT 7 Apr. 2015, first assessment
  decrease in sum of target lesion diameters: 33%
TNBC; CT 13 Sep. 2015
  decrease in sum of target lesion diameters: 52%
TNBC; CT 15 November
  decrease in sum of target lesion diameters: 54%
TNBC; CT 18 May 2015
  decrease in sum of target lesion diameters: 48%
TNBC; CT 19 Jul. 2015
  decrease in sum of target lesion diameters: 50%
TNBC; CT 25 Feb. 2016
  decrease in sum of target lesion diameters: 46%
TNBC; not reached
  time to progression: ≥ 12.4 months
